Reference: patent EP0783890A1, “Use of 2-methyl-4-(4-methyl-1-piperazinyl)-10H-thieno(2,3-b)(1,5)benzodiazepine for the treatment of fungal dermatitis” (ELI LILLY AND COMPANY, priority 1995, dated 1997)

Columns and labels:
[1] = biological target: T1, 5-HT1C receptor (Homo sapiens, UniProt P28335); conditions: in vitro; cited from earlier work
T1 sequence (P28335 33-458): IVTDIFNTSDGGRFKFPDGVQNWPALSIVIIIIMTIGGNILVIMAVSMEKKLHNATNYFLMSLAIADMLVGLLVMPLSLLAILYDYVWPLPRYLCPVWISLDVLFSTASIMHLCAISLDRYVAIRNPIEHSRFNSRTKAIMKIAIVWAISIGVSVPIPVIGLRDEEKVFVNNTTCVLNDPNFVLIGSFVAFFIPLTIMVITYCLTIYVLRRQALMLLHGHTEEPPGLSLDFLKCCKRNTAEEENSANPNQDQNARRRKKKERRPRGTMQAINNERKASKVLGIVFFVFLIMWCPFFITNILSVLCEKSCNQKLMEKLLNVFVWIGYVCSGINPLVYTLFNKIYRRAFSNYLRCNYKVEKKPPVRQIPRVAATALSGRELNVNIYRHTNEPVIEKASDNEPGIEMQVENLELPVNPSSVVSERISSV

[2] = detection of radiolabelled compound in saliva; format: in vivo
Method: For example, in the treatment of adult humans, dosages of from about 5 to 20 mg per day may be used. A once a day dosage is normally sufficient, although divided doses may be administered. For treatment of fungal dermatitis in a human, a dose range of from about […], preferably 5 to 20 mg per day is suitable.

[3] = system: apomorphine-induced hypothermia; conditions: mice; cited from earlier work
[4] = system: conditioned avoidance response; conditions: rats; cited from earlier work
[5] = system: apomorphine-induced climbing behavior; conditions: mice; cited from earlier work
[6] = double-blind, randomized, placebo and haloperidol-controlled clinical trial: occurrence of fungal dermatitis; format: in vivo; conditions: 15 +/-2.5 mg/day vs haloperidol (15 +/- 5 mg/day), double-blind extension treatment phase, human subjects
Method: Such effectiveness for the treatment, amelioration of fungal dermatitis was shown in the following clinical trial:
The study was a double-blind, randomized, parallel, placebo and haloperidol-controlled study of 55 human subjects. The study was conducted in 23 study centers throughout the United States and Canada. […] The acute phase lasted for 6 weeks with evaluations performed weekly followed by a double-blind extension phase of at least one year.

Q: Which “activity at the 5-HT1C receptor” value [1] does the source give for `Cc1cc2c(s1)Nc1ccccc1N=C2N1CCN(C)CC1` [2-methyl-4-(4-methyl-1-piperazinyl)-10H-thieno[2,3-b][1,5]benzodiazepine] here?
A: The value was “active”.

Q: And the “detection in the saliva” value [2]?
A: Its value is “can be detected in the saliva”.

Q: And the apomorphine-induced hypothermia [3]?
A: The apomorphine-induced hypothermia was “antagonized”.

Q: And the conditioned avoidance response [4]?
A: The conditioned avoidance response was “inhibits”.

Q: What about the apomorphine-induced climbing behavior [5] of the same compound?
A: Its apomorphine-induced climbing behavior is “antagonized”.

Q: And the “occurrence of fungal dermatitis compared with haloperidol” value [6]?
A: Its value is “statistically significantly less frequently”.
